Reference: patent US6737383B1, “Herbicidal oxadiazolidines” (priority 1999, dated 2004)

Key:
wild oat = assay: Test B pre/postemergence wild oat; format: in vivo, Avena fatua; details: for Plant response rating, Wild oats: scale of 0 to 10 where 0 is no effect and 10 is complete control
Outline: (§1)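 Test chemicals in a non-phytotoxic solvent mixture with surfactant were sprayed preemergence onto planted seeds and postemergence onto plants 2 to 18 cm tall (1- to 4-leaf stage). After twelve to sixteen days in a greenhouse, injury was visually rated against untreated controls from 0 (no effect) to 10 (complete control).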

rape = assay: Test B pre/postemergence rape; format: in vivo, Brassica napus; details: for Plant response rating, Rape: scale of 0 to 10 where 0 is no effect and 10 is complete control
Outline: as §1

crabgrass = assay: Test B pre/postemergence crabgrass; format: in vivo, Digitaria sanguinalis
Outline: as §1

sugar beet = assay: Test B pre/postemergence sugar beet; format: in vivo, Beta vulgaris; details: for Plant response rating, Sugarbeets: scale of 0 to 10 where 0 is no effect and 10 is complete control
Outline: as §1

surinam grass = assay: Test B pre/postemergence surinam grass; format: in vivo, Brachiaria decumbens
Outline: as §1

pigweed = assay: Test B pre/postemergence pigweed; format: in vivo, Amaranthus retroflexus; details: for Plant response rating, Redroot pigweed: scale of 0 to 10 where 0 is no effect and 10 is complete control
Outline: as §1

velvetleaf = assay: Test B pre/postemergence velvetleaf; format: in vivo, Abutilon theophrasti; details: for Plant response rating, Velvetleaf: scale of 0 to 10 where 0 is no effect and 10 is complete control
Outline: as §1

rice = assay: Test B flood test rice; format: in vivo, Oryza sativa
Outline: (§2)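 Flood test on plants grown to the 2-leaf stage; treated plants kept in greenhouse twelve to sixteen days, then visually rated against controls on a 0 (no effect) to 10 (complete control) scale.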

cocklebur = assay: Test B pre/postemergence cocklebur; format: in vivo, Xanthium strumarium
Outline: as §1

bamyardgrass = assay: Test B flood test barnyardgrass; format: in vivo, Echinochloa crus-galli
Outline: as §2

morningglory = assay: Test B pre/postemergence morningglory; format: in vivo, Ipomoea hederacea; details: for Plant response rating, Morningglory: scale of 0 to 10 where 0 is no effect and 10 is complete control
Outline: as §1

purple nutsedge = assay: Test B pre/postemergence purple nutsedge; format: in vivo, Cyperus rotundus; details: for Plant response rating, Nutsedge: scale of 0 to 10 where 0 is no effect and 10 is complete control
Outline: as §1

blackgrass = assay: Test B pre/postemergence blackgrass; format: in vivo, Alopecurus myosuroides
Outline: as §1

smallflower flatsedge = assay: Test B flood test smallflower flatsedge; format: in vivo, Cyperus difformis
Outline: as §2

wheat = assay: Test B pre/postemergence wheat; format: in vivo, Triticum aestivum; details: for Plant response rating, Wheat: scale of 0 to 10 where 0 is no effect and 10 is complete control
Outline: as §1

giant foxtail = assay: Test B pre/postemergence giant foxtail; format: in vivo, Setaria faberii
Outline: as §1

[1] = Postemergence, Rate 250 g/ha, scale 0 to 10
[2] = Preemergence, Rate 250 g/ha, scale 0 to 10, 0 is no effect, 10 is complete control
[3] = Preemergence, Rate 500 g/ha, scale 0 to 10, 0 is no effect, 10 is complete control
[4] = Rate 62 g/ha, Postemergence, scale 0 to 10 (0 no effect, 10 complete control)
[5] = Rate 125 g/ha, Postemergence, scale 0 to 10, 0 is no effect, 10 is complete control
[6] = Postemergence, Rate 500 g/ha, scale of 0 to 10 where 0 is no effect and 10 is complete control
[7] = Preemergence, Rate 62 g/ha, scale of 0 to 10 where 0 is no effect and 10 is complete control
[8] = Preemergence, Rate 125 g/ha, scale of 0 to 10 where 0 is no effect and 10 is complete control
[9] = Rate 62 g/ha, flood test species, Pre-emergence, visual evaluation after twelve to sixteen days
[10] = Rate 125 g/ha, under heading Pre-emergence, flood test species, visual evaluation after twelve to sixteen days
[11] = Rate 250 g/ha, Pre-emergence (flood test species), scale 0 to 10, 0 is no effect, 10 is complete control
[12] = Rate 500 g/ha, Pre-emergence, flood test species, scale 0 to 10 (0 no effect, 10 complete control)

With C=CC(CC)n1c(=O)on(C(=O)N(c2ccccc2)C(C)C)c1=O (centres unmarked) [Compound 455] the “Wild oats plant response rating” value (wild oat; [1]) was 0, the “Plant response rating, Wild oats” value (wild oat; Preemergence, Rate 62 g/ha) was 0 and the “Plant response rating, Wild oats” value (wild oat; Preemergence, Rate 125 g/ha) was 3. For the same compound, the “Wild oats plant response rating” value (wild oat; [2]) was 9, the “Wild oats plant response rating” value (wild oat; [3]) was 10 and the “Wild oats plant response rating” value (wild oat; [4]) was 0. For the same compound, the “Wild oats plant response rating” value (wild oat; [5]) was 0, the “Rape plant response rating” value (rape; [1]) was 0 and the “Plant response rating, Rape” value (rape; Preemergence, Rate 62 g/ha) was 0. The “Plant response rating, Rape” value (rape; Preemergence, Rate 125 g/ha) was 3, the “Rape plant response rating” value (rape; [2]) was 8 and the “Rape plant response rating” value (rape; [3]) was 9. The “Rape plant response rating” value (rape; [4]) was 0, the “Rape plant response rating” value (rape; [5]) was 0 and the “Crabgrass plant response rating” value (crabgrass; [1]) was 4. The “Crabgrass plant response rating” value (crabgrass; [6]) was 9, the “Plant response rating, Crabgrass” value (crabgrass; [7]) was 5 and the “Plant response rating, Crabgrass” value (crabgrass; [8]) was 5. For the same compound, the “Crabgrass plant response rating” value (crabgrass; [2]) was 10, the “Crabgrass plant response rating” value (crabgrass; [3]) was 10 and the “Crabgrass plant response rating” value (crabgrass; [4]) was 4. For the same compound, the “Sugarbeets plant response rating” value (sugar beet; [1]) was 0, the “Plant response rating, Sugarbeets” value (sugar beet; Preemergence, Rate 62 g/ha) was 0 and the “Plant response rating, Sugarbeets” value (sugar beet; Preemergence, Rate 125 g/ha) was 1. For the same compound, the “Sugarbeets plant response rating” value (sugar beet; [2]) was 3, the “Sugarbeets plant response rating” value (sugar beet; [3]) was 6 and the “Sugarbeets plant response rating” value (sugar beet; [4]) was 0. For the same compound, the “Sugarbeets plant response rating” value (sugar beet; [5]) was 0, the “B. signalgrass plant response rating” value (surinam grass; Postemergence, Rate 250 g/ha, scale 0 to 10, 0 no effect, 10 complete control) was 1 and the “B. signalgrass plant response rating” value (surinam grass; [6]) was 5. The “Plant response rating, B. signalgrass” value (surinam grass; [7]) was 0, the “Plant response rating, B. signalgrass” value (surinam grass; [8]) was 3 and the “B. signalgrass plant response rating” value (surinam grass; [2]) was 9. For the same compound, the “B. signalgrass plant response rating” value (surinam grass; [3]) was 9, the “B. signalgrass plant response rating” value (surinam grass; [4]) was 0 and the “B. signalgrass plant response rating” value (surinam grass; [5]) was 0. The “Redroot pigweed plant response rating” value (pigweed; [1]) was 5, the “Plant response rating, Redroot pigweed” value (pigweed; Preemergence, Rate 62 g/ha) was 7 and the “Plant response rating, Redroot pigweed” value (pigweed; Preemergence, Rate 125 g/ha) was 10. The “Redroot pigweed plant response rating” value (pigweed; [2]) was 10, the “Redroot pigweed plant response rating” value (pigweed; [3]) was 10 and the “Redroot pigweed plant response rating” value (pigweed; [4]) was 2. For the same compound, the “Redroot pigweed plant response rating” value (pigweed; [5]) was 2, the “Velvetleaf plant response rating” value (velvetleaf; [1]) was 3 and the “Plant response rating, Velvetleaf” value (velvetleaf; Preemergence, Rate 62 g/ha) was 2. For the same compound, the “Plant response rating, Velvetleaf” value (velvetleaf; Preemergence, Rate 125 g/ha) was 4, the “Velvetleaf plant response rating” value (velvetleaf; [2]) was 5 and the “Velvetleaf plant response rating” value (velvetleaf; [3]) was 6. For the same compound, the “Velvetleaf plant response rating” value (velvetleaf; [4]) was 0, the “Velvetleaf plant response rating” value (velvetleaf; [5]) was 0 and the “Plant response rating, Rice (0 to 10 scale, 0 is no effect, 10 is complete control)” value (rice; [9]) was 0. For the same compound, the “Rice plant response rating (0 to 10 scale, 0 is no effect, 10 is complete control)” value (rice; [10]) was 0, the “Rice plant response rating” value (rice; [11]) was 0 and the “Rice plant response rating” value (rice; [12]) was 0. For the same compound, the “Cocklebur plant response rating” value (cocklebur; [1]) was 0, the “Cocklebur plant response rating” value (cocklebur; [6]) was 0 and the “Plant response rating, Cocklebur” value (cocklebur; [7]) was 0. The “Plant response rating, Cocklebur” value (cocklebur; [8]) was 0, the “Cocklebur plant response rating” value (cocklebur; [2]) was 0 and the “Cocklebur plant response rating” value (cocklebur; [3]) was 0. The “Cocklebur plant response rating” value (cocklebur; [4]) was 0, the “Cocklebur plant response rating” value (cocklebur; [5]) was 0 and the “Plant response rating, Barnyardgrass (0 to 10 scale, 0 is no effect, 10 is complete control)” value (bamyardgrass; [9]) was 0. For the same compound, the “Barnyardgrass plant response rating (0 to 10 scale, 0 is no effect, 10 is complete control)” value (bamyardgrass; [10]) was 0, the “Barnyardgrass plant response rating” value (bamyardgrass; [11]) was 0 and the “Barnyardgrass plant response rating” value (bamyardgrass; [12]) was 0. The “Morningglory plant response rating” value (morningglory; [1]) was 8, the “Plant response rating, Morningglory” value (morningglory; Preemergence, Rate 62 g/ha) was 0 and the “Plant response rating, Morningglory” value (morningglory; Preemergence, Rate 125 g/ha) was 0. For the same compound, the “Morningglory plant response rating” value (morningglory; [2]) was 0, the “Morningglory plant response rating” value (morningglory; [3]) was 4 and the “Morningglory plant response rating” value (morningglory; [4]) was 3. The “Morningglory plant response rating” value (morningglory; [5]) was 8, the “Nutsedge plant response rating” value (purple nutsedge; [1]) was 0 and the “Plant response rating, Nutsedge” value (purple nutsedge; Preemergence, Rate 62 g/ha) was 0. For the same compound, the “Plant response rating, Nutsedge” value (purple nutsedge; Preemergence, Rate 125 g/ha) was 0, the “Nutsedge plant response rating” value (purple nutsedge; [2]) was 0 and the “Nutsedge plant response rating” value (purple nutsedge; [3]) was 3. The “Nutsedge plant response rating” value (purple nutsedge; [4]) was 0, the “Nutsedge plant response rating” value (purple nutsedge; [5]) was 0 and the “Blackgrass plant response rating” value (blackgrass; [1]) was 9. For the same compound, the “Blackgrass plant response rating” value (blackgrass; [6]) was 9, the “Plant response rating, Blackgrass” value (blackgrass; [7]) was 3 and the “Plant response rating, Blackgrass” value (blackgrass; [8]) was 4. For the same compound, the “Blackgrass plant response rating” value (blackgrass; [2]) was 6, the “Blackgrass plant response rating” value (blackgrass; [3]) was 7 and the “Blackgrass plant response rating” value (blackgrass; [4]) was 6. For the same compound, the “Blackgrass plant response rating” value (blackgrass; [5]) was 8, the “Plant response rating, S. Flatsedge (0 to 10 scale, 0 is no effect, 10 is complete control)” value (smallflower flatsedge; [9]) was 0 and the “S. Flatsedge plant response rating (0 to 10 scale, 0 is no effect, 10 is complete control)” value (smallflower flatsedge; [10]) was 0. For the same compound, the “S. Flatsedge plant response rating” value (smallflower flatsedge; [11]) was 0, the “S. Flatsedge plant response rating” value (smallflower flatsedge; [12]) was 0 and the “Wheat plant response rating” value (wheat; [1]) was 0. The “Plant response rating, Wheat” value (wheat; Preemergence, Rate 62 g/ha) was 0, the “Plant response rating, Wheat” value (wheat; Preemergence, Rate 125 g/ha) was 0 and the “Wheat plant response rating” value (wheat; [2]) was 0. For the same compound, the “Wheat plant response rating” value (wheat; [3]) was 2, the “Wheat plant response rating” value (wheat; [4]) was 0 and the “Wheat plant response rating” value (wheat; [5]) was 0. The “Giant foxtail plant response rating” value (giant foxtail; [1]) was 7, the “Giant foxtail plant response rating” value (giant foxtail; [6]) was 9 and the “Plant response rating, Giant foxtail” value (giant foxtail; [7]) was 10. The “Plant response rating, Giant foxtail” value (giant foxtail; [8]) was 10, the “Giant foxtail plant response rating” value (giant foxtail; [2]) was 10 and the “Giant foxtail plant response rating” value (giant foxtail; [3]) was 10. The “Giant foxtail plant response rating” value (giant foxtail; [4]) was 7 and the “Giant foxtail plant response rating” value (giant foxtail; [5]) was 7.
